Test results: patent US8399495B2, “Talarazole metabolites” (Stiefel Laboratories, Inc., priority 2006, dated 2013)

Assays:
[1] = Excretion of radioactivity (mass balance), rat; format: in vivo; details: 0-168 h, oral 5 mg/kg; for % in Feces (percent of dose recovered, total radioactivity) / % in Urine (percent of dose recovered, total radioactivity): 5 mg/kg
Source text: (§1) Mouse, rat, dog and human were the species used for the safety evaluations of talarozole. More specifically, the disposition of ^14C-labeled talarozole was examined in mice, rats, dogs and humans after oral administration to provide information regarding the absorption, metabolism and excretion of talarozole.
(§2) Male and female CD-1 mice (19-29 g, n=3/sex/timepoint for blood sampling, n=3/sex for mass balance), Sprague Dawley rats (0.205-0.237 kg, n=3/sex/timepoint for blood sampling, n=3/sex for mass balance) and beagle dogs (7-12 kg, n=3) were given a single oral dose of ^14C-labeled talarozole in 20% hydroxyl propyl B-cyclodextrin at 5 mg/kg. Healthy human male volunteers (76.6-107.9 kg, n=5) were dosed with a single oral dose of 4 mg ^14C-labeled rambazole in ethanol. Blood samples were collected at selected timepoints after dosing and plasma was prepared. Urine and feces were collected for 2, 7 and 8 days. For the human study, up to 288 hours post-dose and semen samples were obtained 2 and 4 hours post-dose. Radioactivity in various matrices were measured by liquid scintillation counting (LSC). Select plasma, urine and fecal samples were subjected to metabolite radioprofiling and characterization, and in the human study, semen samples. Metabolite radioprofiling was accomplished using HPLC with fraction collection followed by solid scintillation counting (Packard TopCount—see representative HPLC run data below). Radioactivity peaks were integrated and the percent distribution of individual metabolites in each sample was determined. Metabolite characterization and identification were accomplished by LC/MS (Finnigan MAT LCQ in positive or negative ESI mode) in conjunction with an appropriate radioactive monitor (RAM). For all species, plasma, urine and fecal samples were pooled across animals and analyzed. Plasma was analyzed at several time-points out to 24 hours. Urine was analyzed over one time-interval (0-24 hours for mouse, 0-48 hours for rat, 0-72 hours for dog, and for in the human study, 0-12, 12-24, 24-48, 0-48 hours. Feces was analyzed over 2-3 time intervals (0-24 and 24-48 hours for mouse and rat; 0-24, 24-48, and 48-72 hours for male dogs; and 24-48, 48-72, and 72-96 hours for female dogs). In the human study, feces were analyzed for 0-48, 48-96, 96-144, 144-192, 192-288, 0-144, 144-288 and 0-288 hours. PK parameters for ^14C-labeled talarozole radioactivity was determined from the mean (mouse and rat) or individual (dog and human) plasma concentration versus time data. PK parameter values were determined by non-compartmental methods using WinNonlin™. • HPLC data for separations described in Example 1: • LC system: Waters 2695 Separations Module • Analytic column: C18 column, 4.6×150 mm, 3 μm • Flow rate: 1.0 mL/min • Mobile phase A: 2% HCOOH in H2O (pH 3.2) • Mobile phase B: CH3CN • Gradient: […]

[2] = Metabolite radioprofiling of plasma, urine and feces, dog; format: in vivo; details: for Feces % Dose as the component / Plasma 0-24 h AUC (% Sample) / Plasma 0-24 h AUC of the radioactive component: dog (5 mg/kg) oral 14C-talarozole; for Plasma 0-24 h AUC, total radioactivity: dog (5 mg/kg)
Method: as §2

[3] = Pharmacokinetics of radioactivity in plasma after oral 14C-labeled talarozole, dog; format: in vivo; details: single oral 5 mg/kg; for AUC0-t: 0-168 h
Source text: as §1
as §2, with “Metabolite characterization and identification were accomplished by LC/MS (Finnigan MAT LCQ in positive or negative ESI mode) in conjunction with an appropriate radioactive monitor (RAM).” left out

[4] = Pharmacokinetics of radioactivity in plasma after oral 14C-labeled talarozole, mouse; format: in vivo; details: single oral 5 mg/kg; for AUC0-t: 0-48 h
Source text: as §1
as §2, with “Metabolite characterization and identification were accomplished by LC/MS (Finnigan MAT LCQ in positive or negative ESI mode) in conjunction with an appropriate radioactive monitor (RAM).” left out

[5] = Metabolite radioprofiling of plasma, urine and feces, mouse; format: in vivo; details: for Feces % Dose as the component / Plasma 0-24 h AUC (% Sample) / Plasma 0-24 h AUC of the radioactive component / Urine % Dose as the component: mouse (5 mg/kg) oral 14C-talarozole; for Urine % Dose as the component: urine 0-24 h; for Plasma 0-24 h AUC, total radioactivity: mouse (5 mg/kg)
Method: as §2

[6] = Metabolite radioprofiling of plasma, urine and feces, rat; format: in vivo; details: for Feces % Dose as the component / Plasma 0-24 h AUC (% Sample) / Plasma 0-24 h AUC of the radioactive component / Urine % Dose as the component: rat (5 mg/kg) oral 14C-talarozole; for Urine % Dose as the component: urine 0-48 h; for Plasma 0-24 h AUC, total radioactivity: rat (5 mg/kg)
Method: as §2

[7] = system: vaginal keratinization induced by estrogenic treatment; assay: Inhibition of vaginal keratinization induced by estrogenic treatment in ovariectomized rats; format: in vivo, rat; details: ovariectomized rats with estrogenic treatment; M4 oral during 3 days
Source text: Effects on Epithelial Differentiation in Rat Vagina: Inhibition of Vaginal Keratinization Induced by Estrogenic Treatment in Ovariectomized Rats by Oral Administration of Talarozole Metabolite M4
This animal model is based on the observation that retinoic acid (RA) suppresses the keratinization process in the stratified squamous epithelium of the vagina induced by estrogenic treatment in ovariectomized rats (Sietsema & DeLuca, 1982; Geiger & Weiser, 1989).

[8] = Metabolite radioprofiling of plasma, urine, feces and semen, human; details: in vivo
Method: as §2

[9] = Excretion of radioactivity (mass balance), dog; format: in vivo; details: 0-192 h, oral 5 mg/kg; for % in Urine (percent of dose recovered, total radioactivity) / % in Feces (percent of dose recovered, total radioactivity): 5 mg/kg
Source text: as §1, §2

[10] = Excretion of radioactivity (mass balance), mouse; format: in vivo; details: 0-48 h, oral 5 mg/kg; for % in Feces (percent of dose recovered, total radioactivity) / % in Urine (percent of dose recovered, total radioactivity): 5 mg/kg
Source text: as §1, §2

[11] = female, listed as 14C-Talarozole
[12] = female, listed as 14C-labeled talarozole
[13] = male, listed as 14C-labeled talarozole

In the case of `CCC(CC)[C@H](c1ccc(Nc2nc3ccccc3s2)cc1)n1cncn1` [Talarozole, (R)—N-[4-[2-ethyl-1-(1H-1,2,4-triazole-1-yl)butyl]phenyl]-2-benzothiazolamine], the “% in Cage Rinse (percent of dose recovered)” value ([1]; female) is reported as 3.88%, the “Total % Recovered” value ([1]; female) is reported as 95.4% and the “% in Feces (percent of dose recovered, total radioactivity)” value [1, 11] is reported as 77.57 F %. The “% in Urine (percent of dose recovered, total radioactivity)” value [1, 11] was 10.07 F %, the “% in Feces (percent of dose recovered, total radioactivity)” value [1, 12] was 77.5% and the “% in Urine (percent of dose recovered, total radioactivity)” value [1, 12] was 10.1%. The “% in Cage Rinse (percent of dose recovered)” value ([1]; male) was 4.01%, the “Total % Recovered” value ([1]; male) was 95.2% and the “% in Feces (percent of dose recovered, total radioactivity)” value ([1]; male, listed as 14C-Talarozole) was 77.53 M %. For the same molecule, the “% in Urine (percent of dose recovered, total radioactivity)” value ([1]; male, listed as 14C-Talarozole) was 6.33 M %, the “% in Feces (percent of dose recovered, total radioactivity)” value [1, 13] was 77.5% and the “% in Urine (percent of dose recovered, total radioactivity)” value [1, 13] was 6.3%. For the same molecule, the “Feces % Dose as the component” value ([2]; female) was 1.59 % Dose, the “Plasma 0-24 h AUC (% Sample)” value ([2]; female) was 23.20% and the “Plasma 0-24 h AUC of the radioactive component” value ([2]; female) was 4228.0 ng·h/g. For the same molecule, the “Feces % Dose as the component” value ([2]; male) was 1.22 % Dose, the “Plasma 0-24 h AUC (% Sample)” value ([2]; male) was 24.24% and the “Plasma 0-24 h AUC of the radioactive component” value ([2]; male) was 4132.9 ng·h/g. For the same molecule, the “Plasma 0-24 h AUC, total radioactivity” value ([2]; female) was 18225 ng*hr/g F, the “Plasma 0-24 h AUC, total radioactivity” value ([2]; male) was 17047 ng·h/g/M and the “AUC0-∞” value ([3]; female) was 21902 hr-ng equiv/g. The AUC0-t ([3]; female) was 21388 hr-ng equiv/g, the “AUC0-∞” value ([3]; male) was 19970 hr-ng equiv/g and the AUC0-t ([3]; male) was 19555 hr-ng equiv/g. For the same molecule, the “AUC0-∞” value ([4]; female) was 6767 hr-ng equiv/g, the AUC0-t ([4]; female) was 6632 hr-ng equiv/g and the “AUC0-∞” value ([4]; male) was 10276 hr-ng equiv/g. For the same molecule, the AUC0-t ([4]; male) was 10215 hr-ng equiv/g, the “Feces % Dose as the component” value ([5]; female) was 7.04 % Dose and the “Plasma 0-24 h AUC (% Sample)” value ([5]; female) was 21.48%. The “Plasma 0-24 h AUC of the radioactive component” value ([5]; female) was 1420.2 ng·h/g, the “Urine % Dose as the component” value ([5]; female) was “No unchanged ^14C-labeled talarozole was detected” and the “Feces % Dose as the component” value ([5]; male) was 6.11 % Dose. The “Plasma 0-24 h AUC (% Sample)” value ([5]; male) was 15.15%, the “Plasma 0-24 h AUC of the radioactive component” value ([5]; male) was 1377.5 ng·h/g and the “Urine % Dose as the component” value ([5]; male) was “No unchanged ^14C-labeled talarozole was detected”. For the same molecule, the “Plasma 0-24 h AUC, total radioactivity” value ([5]; female) was 66113.0 ng*hr/g F, the “Plasma 0-24 h AUC, total radioactivity” value ([5]; male) was 9092.5 ng·h/g/M and the “Feces % Dose as the component” value ([6]; female) was 4.60 % Dose. The “Plasma 0-24 h AUC (% Sample)” value ([6]; female) was 39.17%, the “Plasma 0-24 h AUC of the radioactive component” value ([6]; female) was 3523.2 ng·h/g and the “Urine % Dose as the component” value ([6]; female) was 1.90 % Dose. The “Feces % Dose as the component” value ([6]; male) was 5.34 % Dose, the “Plasma 0-24 h AUC (% Sample)” value ([6]; male) was 11.05% and the “Plasma 0-24 h AUC of the radioactive component” value ([6]; male) was 778.38 ng·h/g. For the same molecule, the “Urine % Dose as the component” value ([6]; male) was 0.10 % Dose, the “Plasma 0-24 h AUC, total radioactivity” value ([6]; female) was 8995.6 ng*hr/g F and the “Plasma 0-24 h AUC, total radioactivity” value ([6]; male) was 7045.6 ng·h/g/M. For the same molecule, the “ED50-value for complete suppression (keratinization score=0)” value [7] was 1.0 mg/kg/day, the “Plasma 0-24 h AUC of the radioactive component” value ([8]; human, po, 0.067 mg/kg) was 12.74 ng·h/g and the “Semen (radioactive component in semen samples)” value [8] was “minor radioactive components”. The “Urine % Dose as the component” value [8] was “not found”, the “Plasma 0-24 h AUC, total radioactivity” value ([8]; male, human, 0.067 mg/kg) was 211.3 ng·h/g and the “Plasma 0-24 h AUC (% Sample), % of total plasma radioactivity” value ([8]; male, human, po, 0.067 mg/kg) was 6.03%. For the same molecule, the “% in Urine (percent of dose recovered, total radioactivity)” value ([9]; listed as 14C-Talarozole) was 4.13 M %, the “% in Urine (percent of dose recovered, total radioactivity)” value ([9]; listed as 14C-labeled talarozole) was 4.1% and the “% in Cage Rinse (percent of dose recovered)” value ([9]; female) was 0.5%. For the same molecule, the “Total % Recovered” value ([9]; female) was 92.4%, the “% in Feces (percent of dose recovered, total radioactivity)” value [9, 11] was 89.00 F % and the “% in Urine (percent of dose recovered, total radioactivity)” value [9, 11] was 2.89 F %. For the same molecule, the “% in Feces (percent of dose recovered, total radioactivity)” value [9, 12] was 89.0%, the “% in Urine (percent of dose recovered, total radioactivity)” value [9, 12] was 2.9% and the “% in Cage Rinse (percent of dose recovered)” value ([9]; male) was 0.8%. For the same molecule, the “Total % Recovered” value ([9]; male) was 93.6%, the “% in Feces (percent of dose recovered, total radioactivity)” value ([9]; male, listed as 14C-Talarozole) was 88.66 M % and the “% in Feces (percent of dose recovered, total radioactivity)” value [9, 13] was 88.7%. The “% in Cage Rinse (percent of dose recovered)” value ([10]; female) was 0.8%, the “Total % Recovered” value ([10]; female) was 95.4% and the “% in Feces (percent of dose recovered, total radioactivity)” value [10, 11] was 91.59 F %. The “% in Urine (percent of dose recovered, total radioactivity)” value [10, 11] was 2.96 F %, the “% in Feces (percent of dose recovered, total radioactivity)” value [10, 12] was 91.6% and the “% in Cage Rinse (percent of dose recovered)” value ([10]; male) was 4.4%. The “Total % Recovered” value ([10]; male) was 91.4%, the “% in Feces (percent of dose recovered, total radioactivity)” value ([10]; male, listed as 14C-Talarozole) was 82.70 M % and the “% in Urine (percent of dose recovered, total radioactivity)” value ([10]; male, listed as 14C-Talarozole) was 4.27 M %. The “% in Feces (percent of dose recovered, total radioactivity)” value [10, 13] was 82.7%.
